According to patent US9212144B2, “2-aminoquinoline-based compounds for potent and selective neuronal nitric oxide synthase inhibition” (priority 2014, dated 2015):
Where “and” joins values, the source holds several entries; their conditions need not be identical. Equal values may be shown once. Where a name gives a salt, the structure may show the parent alone. Read-outs that look alike come from different tables or passages of the source.

Legend:
[1] = molecular target: bovine eNOS (Bos taurus (Bovine), UniProt P29473); experiment: Purified NOS enzyme assay (hemoglobin capture), bovine eNOS; assay type: biochemical; settings: for Ki: bovine eNOS, Ki calculated from IC50, average of at least two replicates; for Selectivity n/e: ratio of respective Ki values (eNOS/nNOS)
[2] = molecular target: murine macrophage iNOS (Mus musculus (Mouse), UniProt P29477); settings: for Ki: read-out: Ki iNOS, murine iNOS, Ki calculated from IC50, average of at least two replicates; for Selectivity n/i: ratio of respective Ki values (iNOS/nNOS)
[3] = molecular target: rat nNOS (Rattus norvegicus (Rat), UniProt P29476); experiment: Purified NOS enzyme assay (hemoglobin capture), rat nNOS; assay type: biochemical
[4] = molecular target: human nNOS (Homo sapiens (Human), UniProt P29475); experiment: Purified NOS enzyme assay (hemoglobin capture), human nNOS; assay type: biochemical
[5] = test system: newborn rabbit kits; settings: administered intravenously to the dam; cited from earlier work
[6] = test system: Caco-2 cells; settings: background statement on prior art compound; cited from earlier work
[7] = rat nNOS, Ki calculated from IC50, average of at least two replicates, read-out: Ki nNOS

| Ki [1] [µM] | Ki [2] [µM] | Ki [3, 7] [µM] | Selectivity n/e [1] | Selectivity n/i [2] | Structure (SMILES) | further results |
| --- | --- | --- | --- | --- | --- | --- |
| 8.86 | 51.2 | 0.183 | 37 | 280 | Cl.Cl.Nc1ccc2ccc(CCNCCc3ccc(F)cc3)cc2n1 [Compound 14, 7-[(4-Fluorophenethylamino)ethyl]quinolin-2-amine Dihydrochloride] | – |
| 7.77 | 24.5 | 0.254 | 30 | 97 | Cl.Cl.Nc1ccc2ccc(CCNCc3cccc(F)c3)cc2n1 [Compound 6, 7-[2-(3-Fluorobenzylamino)ethyl]quinolin-2-amine Dihydrochloride] | – |
| – | – | > 5.7 | – | – | Nc1ccc2cc(CCNCc3cccc(F)c3)ccc2n1 [Compound 11, 6-[2-(3-Fluorobenzylamino)ethyl]quinolin-2-amine Dihydrochloride] | – |
| – | – | > 5.7 | – | – | Nc1ccc2cc(CCNCCc3cccc(F)c3)ccc2n1 [Compound 12, 6-[(3-Fluorophenethylamino)ethyl]quinolin-2-amine Dihydrochloride] | – |
| – | – | – | – | – | Cc1cc(N)nc(C[C@@H]2CNC[C@@H]2NCCNCCc2cccc(F)c2)c1 [Compound 1] | effect on hypoxic-ischemic brain damage phenotype [5]: reverses a hypoxic-ischemic brain damage phenotype |
| 9.89 | 19.2 | 0.212 | 47 | 91 | Cl.Cl.Nc1ccc2ccc(CCNCCc3ccc(Cl)cc3)cc2n1 [Compound 16, 7-[(4-Chlorophenethylamino)ethyl]quinolin-2-amine Dihydrochloride] | – |
| – | – | – | – | – | [H]/N=C(/Nc1cccc(CNCCc2cccc(F)c2)c1)c1cccs1 [Compound 3] | Caco-2 permeability [6]: poor |

| Structure (SMILES) | Ki [1] [µM] | Ki [2] [µM] | Ki [3, 7] [µM] | Selectivity n/e [1] | Selectivity n/i [2] | further results |
| --- | --- | --- | --- | --- | --- | --- |
| Cl.Cl.Nc1ccc2ccc(CNCCCc3cccc(F)c3)cc2n1 [Compound 9, 7-{2-[3-(3-Fluorophenyl(propylamino)methyl]}quinolin-2-amine Dihydrochloride] | 3.69 | 32.3 | 0.06 | – | – | – |
| Nc1ccc2cc(CNCCc3cccc(F)c3)ccc2n1 [Compound 10, 6-[(3-Fluorophenethylamino)methyl]quinolin-2-amine Dihydrochloride] | – | – | > 5.7 | – | – | – |
| Cl.Cl.Nc1ccc2ccc(CNCCCc3cccc(F)c3)cc2n1 [Compound 9] | – | – | – | 62 | 538 | – |
| Cl.Cl.Nc1ccc2ccc(CNCCc3cccc(F)c3)cc2n1 [Compound 5, 7-[(3-Fluorophenethylamino)methyl]quinolin-2-amine Dihydrochloride] | 0.485 | 9.14 | – | 6.2 | 124 | selectivity for nNOS over eNOS [1]: approximately 6 fold; Ki ([4]; human nNOS, Ki calculated from IC50, average of at least two replicates): 0.493 µM; Selectivity (Rat/Human) ([4]; ratio of respective Ki values, Ki-human/Ki-rat): 6.7; Ki ([3]; purified nNOS, read-out: inhibition of nNOS): 0.074 µM; Ki ([3]; rat nNOS, Ki calculated from IC50, average of at least two replicates, Dihydrochloride, read-out: Ki nNOS): 0.075 µM and 0.074 µM |
